Calls of active or inactive are those of the source.
What was measured:
[1] = target: Beta-2 adrenergic receptor (Homo sapiens, UniProt P07550); assay: beta2AR agonists driving receptor internalization, dose response, cell-based, FAP fluorogen, flow cytometry, cherry pick 1 (AID 588763); assay type: functional
[2] = Luminescence Cell-Based/Microorganism Confirmation at Dose of Inhibitors of Trypanosoma cruzi Infection. [Related pubchem assays: 1885, 1968 ]; assay type: functional
[3] = inhibitors of intracellular T. cruzi replication, confirmation, NIH3T3 host cells, beta-gal luminescence (AID 2044); assay type: functional, cell-based;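 note: intracellular parasites grown in NIH/3T3 mouse fibroblasts as host cells; luminescent beta-galactosidase reporter signal from transgenic T. cruzi replicating inside host cells; inhibitors lower the luminescence signal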
[4] = Luminescence Cell-Based Secondary HTS screen to identify cytotoxic compounds of NIH3T3 cells. [Related pubchem assays: 1885, 1968 ]; assay type: functional
[5] = cytotoxicity toward NIH3T3 fibroblasts, dose response, counter-screen, cell-based, ATP luminescence, mouse fibroblasts (AID 2010); assay type: functional;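 note: cells exposed to compound for about 90 hours before reading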
[6] = inhibitors of Trypanosoma cruzi host-cell infection, confirmation, beta-gal luminescence, NIH3T3 host cells (AID 2630); assay type: functional, cell-based; settings: Mus musculus
[7] = cells
[8] = target: Dual specificity protein kinase CLK1 (Homo sapiens, UniProt P49759); assay: CLK1 kinase inhibitors, off-target check, dose response, selectivity assay for Dyrk1A inhibitor project, biochemical, cherry-picked samples (AID 588811)
[9] = target: Dual specificity tyrosine-phosphorylation-regulated kinase 1A (Rattus norvegicus, UniProt Q63470); assay type: biochemical, Homo sapiens
[10] = target: T1, Tyrosine-protein phosphatase non-receptor type 7 (Homo sapiens, UniProt P35236); assay type: functional
T1 sequence (P35236 whole entry): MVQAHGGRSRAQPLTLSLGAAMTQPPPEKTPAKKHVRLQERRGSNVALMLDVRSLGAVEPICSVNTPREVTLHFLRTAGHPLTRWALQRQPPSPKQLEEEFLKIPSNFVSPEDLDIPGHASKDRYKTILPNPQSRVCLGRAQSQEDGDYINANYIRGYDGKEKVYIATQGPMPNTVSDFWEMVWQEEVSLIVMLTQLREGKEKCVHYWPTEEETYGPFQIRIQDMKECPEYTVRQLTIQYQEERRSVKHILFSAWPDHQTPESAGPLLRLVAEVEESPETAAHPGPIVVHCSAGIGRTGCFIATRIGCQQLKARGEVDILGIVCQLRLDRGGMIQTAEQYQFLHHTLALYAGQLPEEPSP

[11] = target: Glyceraldehyde-3-phosphate dehydrogenase (Homo sapiens, UniProt P04406)
[12] = target: T2, Dual specificity protein phosphatase 6 (Rattus norvegicus, UniProt Q64346)
T2 sequence (Q64346 whole entry): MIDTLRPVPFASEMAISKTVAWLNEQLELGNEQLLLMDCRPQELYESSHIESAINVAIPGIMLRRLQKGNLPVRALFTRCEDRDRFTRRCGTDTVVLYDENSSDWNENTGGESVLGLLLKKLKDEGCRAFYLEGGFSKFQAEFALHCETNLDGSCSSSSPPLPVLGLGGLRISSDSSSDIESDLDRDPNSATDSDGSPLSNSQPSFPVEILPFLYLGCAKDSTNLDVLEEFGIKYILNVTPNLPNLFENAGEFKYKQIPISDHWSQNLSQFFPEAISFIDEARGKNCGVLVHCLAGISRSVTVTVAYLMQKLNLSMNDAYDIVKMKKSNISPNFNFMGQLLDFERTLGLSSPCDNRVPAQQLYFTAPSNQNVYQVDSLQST

[13] = target: T2, Dual specificity protein phosphatase 6; assay type: functional
[14] = test system: HEK293; assay: inhibitors of LMP1-driven NF-kB reporter, dose response, cell-based, HEK293, luciferase, cherry-pick (AID 588343); assay type: functional; settings: Homo sapiens
[15] = Shn3 3'UTR reporter inhibitors, dose response, cell-based, Clone20 osteoblasts, firefly luciferase, cherry-picked (AID 624132); assay type: functional;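 note: firefly luciferase luminescence from reporter carrying the Shn3 3'UTR in osteoblasts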
[16] = HepG2 cell cytotoxicity, dose response, cytotoxicity control for Shn3 inhibitor project, CellTiter-Glo, cherry-picked (AID 624134); assay type: functional, cell-based
[17] = control 3'UTR Renilla luciferase suppression, dose response, counter-screen for Shn3 inhibitor project, cell-based, Clone20-Shn3RL, cherry-picked (AID 624133); assay type: functional
[18] = target: T3, Heat shock factor protein 1 (Mus musculus, UniProt P38532); assay: HSF1 potentiators in luciferase reporter cells, confirmation, cell-based, NIH3T3, luminescence, dose retest (AID 435004); assay type: functional;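 note: stress induced by proteasome inhibitor MG132 added 30 min after compound; luciferase reporter driven by HSF1 response element in NIH3T3 cells; actives raise luminescence as potentiators of the MG132 stress response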
T3 sequence (P38532 whole entry): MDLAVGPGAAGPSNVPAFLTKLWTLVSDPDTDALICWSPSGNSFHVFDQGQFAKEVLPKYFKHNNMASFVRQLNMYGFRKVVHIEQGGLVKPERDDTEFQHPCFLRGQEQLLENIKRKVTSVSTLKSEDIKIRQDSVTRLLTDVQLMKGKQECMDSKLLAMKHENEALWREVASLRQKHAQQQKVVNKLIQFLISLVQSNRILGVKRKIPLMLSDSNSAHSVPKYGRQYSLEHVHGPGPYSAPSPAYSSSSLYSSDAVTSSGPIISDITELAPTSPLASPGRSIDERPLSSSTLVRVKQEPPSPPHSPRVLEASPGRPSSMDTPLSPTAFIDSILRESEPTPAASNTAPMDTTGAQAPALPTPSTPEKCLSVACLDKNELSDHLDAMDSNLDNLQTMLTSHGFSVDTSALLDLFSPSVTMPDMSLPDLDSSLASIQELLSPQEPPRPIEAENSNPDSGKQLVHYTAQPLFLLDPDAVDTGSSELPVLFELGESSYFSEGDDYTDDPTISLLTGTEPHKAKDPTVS

[19] = test system: Vero; assay: cells; assay type: functional, cell-based; settings: Chlorocebus sabaeus
[20] = test system: Vero; assay: cells; assay type: functional; settings: Chlorocebus sabaeus
[21] = target: Nuclear receptor subfamily 5 group A member 2 (Homo sapiens, UniProt O00482); assay type: functional, cell-based;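 note: HEK293T cells transfected with LRH-1 and a StAR promoter luciferase reporter; potency for inhibitors that lower LRH-1 driven reporter light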
[22] = target: Steroidogenic factor 1 (Homo sapiens, UniProt Q13285); assay: Counterscreen for inverse agonists of the liver receptor homolog-1 (LRH-1; NR5A2): Luminescence-based cell-based high throughput dose response assay to identify inverse agonists of the Steroidogenic Factor 1 Nuclear Receptor (SF1; NR5A1).; assay type: functional
[23] = StAR promoter reporter inhibition counter-screen, dose response, counter-screen for LRH-1 inverse agonist project, cell-based, luminescence, luciferase reporter (AID 651969); assay type: functional
[24] = test system: HEK293; assay: cells; assay type: functional, cell-based; settings: Homo sapiens
[25] = target: Nuclear receptor subfamily 0 group B member 1 (Homo sapiens, UniProt P51843); assay: Luminescence-based cell-based high throughput dose response assay for inhibitors of the orphan nuclear receptor subfamily 0, group B, member 1 (DAX1; NR0B1). [Related pubchem assays (depositor defined):AID504766, AID504790]; assay type: functional
[26] = blockers of SFLLRN-triggered platelet ATP secretion – cell-based, human platelets, luminescence, dry powder, dose response (AID 493100); assay type: functional
[27] = Luminescence Cell-Based Dose Response Follow up to Identify Inhibitors of Platelet Dense Granule Release. [Related pubchem assays (depositor defined):AID1663, AID1678, AID1889, AID2519]; assay type: functional
[28] = test system: Candida albicans; assay: growth inhibition of resistant C. albicans, dose response, CaCi-8 strain, fluconazole, dry powder, set 4 (AID 488950); assay type: functional, organism-based
[29] = test system: Candida albicans; assay: fluconazole resistance reversal in C. albicans, dose response, CaCi-2 strain, Alamar Blue, dry powder, set 4 (AID 488943); assay type: functional, organism-based
[30] = test system: Candida albicans; assay: growth inhibition of resistant C. albicans, dose response, CaCi-8, fluconazole, Alamar Blue, dry powder (AID 488807); assay type: functional, organism-based
[31] = test system: Candida albicans; assay: reversal of fluconazole resistance in C. albicans, dose response, CaCi-2 strain, Alamar Blue, dry powder, set 3 (AID 488907); assay type: functional, organism-based
[32] = test system: Candida albicans; assay: Candida albicans growth inhibition, agent alone, dose response, counter-screen for reversing antifungal drug resistance, CaCi-2 strain, no fluconazole, dry powder, set 4 (AID 488932); assay type: functional, organism-based
[33] = NIH-3T3 fibroblast cytotoxicity, dose response, cytotoxicity control, cell-based, fluorescence, Alamar Blue, secondary assay (AID 2327); assay type: functional;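 note: NIH-3T3 mouse fibroblasts cultured with fluconazole at 8 µg/mL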
[34] = inhibitors of firefly luciferase expression or activity, dose response, H4 neuroglioma cells, luminescence (AID 1990); assay type: functional, cell-based
[35] = Luminescence Cell-Based Dose Response HTS to Identify Inhibitors of 5'UTR Stem-Loop Driven Prion Protein mRNA Translation in H4 Neuroglioblastoma Cells. [Related pubchem assays: 1827 (Project Summary), 1813 (Primary HTS)]; assay type: functional
[36] = inhibitors of SNCA 5'UTR-driven reporter translation, confirmation, H4 neuroglioma cells, luminescence (AID 1988); assay type: functional, cell-based
[37] = C. albicans growth with fluconazole, confirmation, fluorescence, retest (AID 2467); assay type: functional, cell-based
[38] = target: Serine/threonine-protein phosphatase (Candida dubliniensis (strain CD36 / CBS 7987 / NCPF 3949 / NRRLY-17841) (Yeast), UniProt B9W6M3); assay: calcineurin pathway inhibitors in yeast reporter, dose response, S. cerevisiae, CDRE-lacZ, luminescence, secondary (AID 2388); assay type: functional, cell-based;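 note: yeast reporter cells carrying a calcineurin-responsive lacZ construct stimulated with calcium chloride; luminescent beta-galactosidase reporter signal in whole cells rather than isolated phosphatase activity; potency for inhibition where a drop in reporter signal means calcineurin blockade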
[39] = test system: INS1; assay: beta cell apoptosis inhibitors, cytokine rescue, dose response, luminescence, retest (AID 449756); assay type: functional, cell-based; settings: Rattus norvegicus;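 note: cell death triggered by IL-1 beta plus TNF-alpha plus IFN-gamma mixture; protective hits raise ATP signal compared with cytokine alone wells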
[40] = target: ATP-dependent molecular chaperone HSP82 (Candida albicans (strain WO-1) (Yeast), UniProt C4YTQ8); assay: loss of DOC-induced GRE-beta-galactosidase reporter signal, dose response, Hsp90 inhibitor project, S. cerevisiae, luminescence (AID 2400); assay type: functional, cell-based;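 note: beta-galactosidase luminescence from glucocorticoid response element reporter as proxy for Hsp90 function; inhibitor potency where signal loss means Hsp90 inhibition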
[41] = target: Dual specificity protein phosphatase 3 (Homo sapiens, UniProt P51452); assay: SAR VHR1 Fluorescent Assay for In Vitro dose response studies Set 3. [Related pubchem assays (depositor defined):AID1654, AID1661, AID1878]; assay type: functional
Dual specificity protein phosphatase 3, sequence (P51452 whole entry): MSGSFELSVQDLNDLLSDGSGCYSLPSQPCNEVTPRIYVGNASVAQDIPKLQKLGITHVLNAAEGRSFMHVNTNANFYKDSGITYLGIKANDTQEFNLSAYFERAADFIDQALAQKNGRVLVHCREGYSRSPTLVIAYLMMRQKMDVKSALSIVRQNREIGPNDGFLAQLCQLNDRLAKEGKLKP

Nuclear receptor subfamily 0 group B member 1, sequence (P51843 whole entry): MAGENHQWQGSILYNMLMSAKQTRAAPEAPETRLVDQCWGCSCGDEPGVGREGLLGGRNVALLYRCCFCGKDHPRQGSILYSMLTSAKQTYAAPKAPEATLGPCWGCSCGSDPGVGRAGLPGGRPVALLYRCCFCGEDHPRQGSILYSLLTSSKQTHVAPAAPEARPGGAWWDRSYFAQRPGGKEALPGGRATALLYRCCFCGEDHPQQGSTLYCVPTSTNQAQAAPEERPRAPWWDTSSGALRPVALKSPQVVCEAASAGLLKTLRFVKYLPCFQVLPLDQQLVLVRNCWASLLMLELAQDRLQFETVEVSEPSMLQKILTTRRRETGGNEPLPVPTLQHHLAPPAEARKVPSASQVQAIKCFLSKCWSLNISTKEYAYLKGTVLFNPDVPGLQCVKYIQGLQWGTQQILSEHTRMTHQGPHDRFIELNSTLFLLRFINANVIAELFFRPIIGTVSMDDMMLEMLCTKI
Steroidogenic factor 1, sequence (Q13285 whole entry): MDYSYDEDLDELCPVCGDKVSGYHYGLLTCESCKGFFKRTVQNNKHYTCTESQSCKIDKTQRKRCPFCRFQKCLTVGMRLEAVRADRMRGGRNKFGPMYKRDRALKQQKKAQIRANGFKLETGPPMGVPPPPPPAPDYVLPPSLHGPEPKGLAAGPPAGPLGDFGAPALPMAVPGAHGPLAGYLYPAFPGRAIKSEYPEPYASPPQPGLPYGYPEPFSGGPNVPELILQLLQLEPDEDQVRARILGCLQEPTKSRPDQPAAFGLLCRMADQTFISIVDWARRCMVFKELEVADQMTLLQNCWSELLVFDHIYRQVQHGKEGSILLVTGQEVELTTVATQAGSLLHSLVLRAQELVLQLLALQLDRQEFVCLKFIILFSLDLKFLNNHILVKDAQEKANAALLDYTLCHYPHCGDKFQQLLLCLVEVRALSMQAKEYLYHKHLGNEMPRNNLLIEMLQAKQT
Dual specificity protein kinase CLK1, sequence (P49759 whole entry): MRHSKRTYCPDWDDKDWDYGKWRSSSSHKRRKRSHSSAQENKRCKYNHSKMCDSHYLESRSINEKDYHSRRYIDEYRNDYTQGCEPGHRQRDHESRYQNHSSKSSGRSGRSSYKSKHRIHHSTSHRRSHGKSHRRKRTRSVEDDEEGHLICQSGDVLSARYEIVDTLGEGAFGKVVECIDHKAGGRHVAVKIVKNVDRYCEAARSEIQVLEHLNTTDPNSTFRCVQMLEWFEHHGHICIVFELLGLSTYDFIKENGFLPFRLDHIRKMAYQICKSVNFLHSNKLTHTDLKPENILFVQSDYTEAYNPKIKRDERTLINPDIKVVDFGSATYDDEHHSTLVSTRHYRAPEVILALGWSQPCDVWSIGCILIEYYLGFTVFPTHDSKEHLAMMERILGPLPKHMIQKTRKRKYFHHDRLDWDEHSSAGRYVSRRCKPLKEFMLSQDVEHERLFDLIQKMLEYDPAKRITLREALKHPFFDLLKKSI
Serine/threonine-protein phosphatase, sequence (B9W6M3 whole entry): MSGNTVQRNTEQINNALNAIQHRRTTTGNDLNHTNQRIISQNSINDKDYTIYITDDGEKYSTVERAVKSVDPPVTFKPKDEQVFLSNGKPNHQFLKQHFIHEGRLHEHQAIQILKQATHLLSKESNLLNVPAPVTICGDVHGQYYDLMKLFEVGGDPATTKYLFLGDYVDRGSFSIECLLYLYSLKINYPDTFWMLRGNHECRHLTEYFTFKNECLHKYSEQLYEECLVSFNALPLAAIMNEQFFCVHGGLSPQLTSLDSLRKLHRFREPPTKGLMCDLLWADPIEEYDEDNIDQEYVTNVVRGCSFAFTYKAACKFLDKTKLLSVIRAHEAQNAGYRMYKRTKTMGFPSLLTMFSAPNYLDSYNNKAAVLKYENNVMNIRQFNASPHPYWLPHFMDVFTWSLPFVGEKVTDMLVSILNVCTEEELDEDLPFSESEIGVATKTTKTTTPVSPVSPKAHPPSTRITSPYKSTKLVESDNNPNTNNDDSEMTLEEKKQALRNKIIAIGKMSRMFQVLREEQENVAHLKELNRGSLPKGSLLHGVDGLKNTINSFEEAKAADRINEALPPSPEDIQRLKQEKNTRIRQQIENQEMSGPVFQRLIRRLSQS
ATP-dependent molecular chaperone HSP82, sequence (C4YTQ8 whole entry): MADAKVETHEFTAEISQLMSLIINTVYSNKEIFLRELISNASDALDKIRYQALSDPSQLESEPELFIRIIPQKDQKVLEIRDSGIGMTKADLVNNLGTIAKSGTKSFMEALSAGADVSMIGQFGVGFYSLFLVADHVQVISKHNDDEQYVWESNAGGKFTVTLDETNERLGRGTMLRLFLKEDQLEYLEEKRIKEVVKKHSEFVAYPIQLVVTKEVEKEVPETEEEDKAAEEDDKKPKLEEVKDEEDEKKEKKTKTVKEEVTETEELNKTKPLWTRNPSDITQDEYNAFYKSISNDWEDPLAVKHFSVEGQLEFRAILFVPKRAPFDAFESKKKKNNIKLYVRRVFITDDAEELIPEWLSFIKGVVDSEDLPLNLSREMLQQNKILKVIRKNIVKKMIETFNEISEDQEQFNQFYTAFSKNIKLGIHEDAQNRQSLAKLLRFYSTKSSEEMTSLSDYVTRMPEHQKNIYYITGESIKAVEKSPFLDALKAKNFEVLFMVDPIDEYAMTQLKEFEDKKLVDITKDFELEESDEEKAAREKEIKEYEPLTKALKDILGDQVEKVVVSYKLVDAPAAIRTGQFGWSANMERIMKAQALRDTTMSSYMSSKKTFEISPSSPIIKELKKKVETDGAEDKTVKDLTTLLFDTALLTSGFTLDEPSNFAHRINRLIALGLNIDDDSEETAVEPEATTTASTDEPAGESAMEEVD
Beta-2 adrenergic receptor, sequence (P07550 whole entry): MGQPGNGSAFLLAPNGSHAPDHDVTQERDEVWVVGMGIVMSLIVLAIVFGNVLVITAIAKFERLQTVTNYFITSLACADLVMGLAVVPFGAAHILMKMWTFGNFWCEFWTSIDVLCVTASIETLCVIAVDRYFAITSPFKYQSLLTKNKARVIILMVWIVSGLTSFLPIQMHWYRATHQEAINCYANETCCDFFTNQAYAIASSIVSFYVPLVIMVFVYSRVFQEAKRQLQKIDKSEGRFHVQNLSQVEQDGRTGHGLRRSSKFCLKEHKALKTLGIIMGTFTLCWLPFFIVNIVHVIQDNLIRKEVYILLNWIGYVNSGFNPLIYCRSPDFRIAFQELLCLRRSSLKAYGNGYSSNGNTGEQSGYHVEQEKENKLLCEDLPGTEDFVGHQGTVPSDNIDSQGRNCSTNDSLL
Glyceraldehyde-3-phosphate dehydrogenase, sequence (P04406 whole entry): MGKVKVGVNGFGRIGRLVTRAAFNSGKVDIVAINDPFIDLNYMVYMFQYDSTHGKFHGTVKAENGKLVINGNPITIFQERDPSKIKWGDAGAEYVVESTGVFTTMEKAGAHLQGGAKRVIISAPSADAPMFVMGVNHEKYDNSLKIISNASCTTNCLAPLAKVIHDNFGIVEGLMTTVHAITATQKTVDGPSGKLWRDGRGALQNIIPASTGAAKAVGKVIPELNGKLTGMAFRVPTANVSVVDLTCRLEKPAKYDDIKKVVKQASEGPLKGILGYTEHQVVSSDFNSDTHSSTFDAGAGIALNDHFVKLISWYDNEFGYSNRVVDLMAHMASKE
Nuclear receptor subfamily 5 group A member 2, sequence (O00482 whole entry): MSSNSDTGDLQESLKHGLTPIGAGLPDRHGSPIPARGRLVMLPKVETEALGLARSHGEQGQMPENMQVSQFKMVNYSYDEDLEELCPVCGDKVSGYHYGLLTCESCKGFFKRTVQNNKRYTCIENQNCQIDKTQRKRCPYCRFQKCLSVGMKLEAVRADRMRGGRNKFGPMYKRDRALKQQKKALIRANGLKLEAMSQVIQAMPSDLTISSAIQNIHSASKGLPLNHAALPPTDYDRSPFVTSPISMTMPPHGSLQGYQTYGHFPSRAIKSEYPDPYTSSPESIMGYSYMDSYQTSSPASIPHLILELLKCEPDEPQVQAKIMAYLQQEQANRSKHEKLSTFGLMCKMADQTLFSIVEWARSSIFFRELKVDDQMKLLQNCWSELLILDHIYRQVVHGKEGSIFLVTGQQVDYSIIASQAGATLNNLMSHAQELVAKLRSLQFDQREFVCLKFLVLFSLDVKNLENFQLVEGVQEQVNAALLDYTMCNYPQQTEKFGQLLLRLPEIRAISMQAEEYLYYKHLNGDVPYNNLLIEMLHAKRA

In the case of `Cc1ccc(N(C)S(=O)(=O)c2cc(-c3cnc(C4CC4)o3)ccc2C)cc1`, the EC50 [1] was 2.46 µM (active).
In the case of `CC(C)=CCCC(C)CN(C)CCc1ccccn1` (stereo not drawn), the EC50 [2] was 0.027 µM (active), the EC50 [3] was < 0.1 µM (active) and the EC50 [4] was > 195 µM (not active). The EC50 [5] was > 60 µM (not active), the EC50 [6] was 0.027 µM (active) and the EC50 [7] was 0.083 µM (active).
With `CC(=O)Nc1ccc(Nc2cc(C)nc3c(-c4ccccc4)cnn23)cc1` the AC50 [8] was 15.3 µM (active) and the AC50 [9] was 5.54 µM (active).
For `CCCCCCCCCCCCCCCCCCC#CCCCCCCCCCCC(=O)O`, the IC50 [10] was 15.2 µM (active), the IC50 [11] was > 100 µM (not active) and the IC50 [12] was > 100 µM (inactive). For the same compound, the IC50 [13] was > 100 µM (inactive).
In the case of `Cc1ccccc1C(=O)NC(=S)Nc1ccc(N2CCN(C(=O)c3ccccc3)CC2)cc1`, the AC50 [14] was 1.7 µM (active), the AC50 [15] was 1.88 µM (active) and the AC50 [16] was 51.5 µM (active). The AC50 [17] was 7.72 µM (active).
For `O=C(Nc1ccc(Br)cn1)c1ccc([N+](=O)[O-])o1`, the EC50 [18] was 16.7 µM (active), the IC50 [19] was > 25 µM (active) and the CC50 [20] was 13.8 µM (active). For the same compound, the IC50 [21] was 35.9 µM (inactive), the IC50 [22] was 35.9 µM (inactive) and the IC50 [23] was 35.9 µM (inactive).
For `CCCCNC(=O)Nc1nc2ccccc2s1`, the IC50 [24] was > 67.5 µM (inactive) and the IC50 [25] was > 67.5 µM (inactive).
In the case of `C/C(=N/NC(=O)C1CCCC1)c1ccc(NC(=O)C(F)(F)F)cc1`, the AC50 [26] was 12.3 µM (active) and the EC50 [27] was 0.802 µM (active).
With `O=C(c1ccccc1)N1CCN(c2ccnc3cc(Cl)ccc23)CC1` the AC50 [28] was 2.05 µM (active), the AC50 [29] was 1.69 µM (active) and the AC50 [30] was 5.68 µM (active).
In the case of `Cn1ccnc1N1CCN(C(=O)c2ccc(Cl)cc2)CC1`, the AC50 [28] was 224 µM (active), the AC50 [29] was 8.2 µM (active) and the AC50 [31] was 0.587 µM (active). The AC50 [32] was > 260 µM (inactive).
In the case of `C/C(=N\NC(=O)c1cc(C2CC2)nc2ccccc12)c1ccc(O)cc1O`, the EC50 [33] was 12.9 µM (inconclusive), the EC50 [34] was 11.7 µM (active) and the EC50 [35] was 11.4 µM (active). For the same compound, the EC50 [36] was 5.57 µM (inconclusive), the EC50 [37] was 2.46 µM (active) and the EC50 [38] was > 180 µM (inactive). The AC50 [39] was 1.01 µM (active) and the EC50 [40] was > 160 µM (inactive).
For `COc1ccc(C(=O)Nc2nc3c(OC)cccc3s2)cc1`, the IC50 [41] was 41.9 µM (active).

— ChEMBL document CHEMBL1201862, “PubChem BioAssay data set” (2004)
